# Like-named read-outs stand apart in the source and are kept apart here.
# Legend:
# [1] = target: DNA-PK (Homo sapiens (Human), UniProt P78527); experiment: DNA-PK biochemical assay (Reaction Biology HotSpot kinase assay, 10 μM ATP)
# Procedure: DNA-PK Biochemical Assay Using Reaction Biology's HotSpot Kinase Assay Protocol:
# Reagent: Base Reaction buffer; 20 mM Hepes (pH 7.5), 10 mM MgCl2, 1 mM EGTA, 0.01% Brij35, 0.02 mg/ml BSA, 0.1 mM Na3VO4, 2 mM DTT, 1% DMSO Required cofactors are added individually to each kinase reaction.
# Reaction Procedure: 1. Prepare substrate in freshly prepared Reaction Buffer; 2. Deliver any required cofactors to the substrate solution above; 3. Deliver kinase into the substrate solution and gently mix; 4. Deliver compounds in 100% DMSO into the kinase reaction mixture by Acoustic technology (Echo550; nanoliter range), incubate for 20 min at room temperature; 5. Deliver 33P-ATP into the reaction mixture to initiate the reaction; 6. Incubate for 2 hours at room temperature; 7. Detect kinase activity by P81 filter-binding method.
# [2] = target: ATM (Homo sapiens (Human), UniProt Q13315); experiment: ATM biochemical assay (Reaction Biology HTRF kinase assay, 10 μM ATP)
# Procedure: Ataxia-Telangiectasia Mutated (ATM) Biochemical Assay Using Reaction Biology's HTRF Kinase Assay Protocol:
# The assay detects kinase activity by antibody based HTRF assay. The GST-tagged p53 protein serves as substrate and Eu-labeled-antibody with specific phosphorylation site binds upon phosphorylation which is monitored by HTRF from the anti-GST-d2.
# Reagent: Reaction buffer; 50 mM Hepes (pH 7.5), 150 mM NaCl, 10 mM MnCl2, 1% Glycerol, 0.01% Brij35, 1 mM DTT, 1% DMSO.
# Substrate: Human p53 (aa2-393), RBC produced in E. coli, N-terminal GST-Tag, MW=70.42 kDa.
# Detection; MAb Anti-p53-pS15-Eu cryptate, CisBio cat #61P08KAZ; MAb Anti GST-d2
# Reaction Procedure: 1. Deliver 2× Enzyme in wells of reaction plate except No E control wells. Add buffer instead; 2. Deliver compounds in 100% DMSO into the kinase reaction mixture by Acoustic technology (Echo550; nanoliter range), incubate for 30 min at room temperature; 3. Deliver 2× substrate+ATP mixture into the reaction mixture to initiate the reaction; 4. Incubate for 2 hours at room temperature.
# HTRF Detection: 1. Deliver 2× Stop/Detection mixture and incubate for 2 hours to overnight in the dark. 2. HTRF measurement (Ex/Em1/Em2=320/615/665 nm) in EnVision.
# [3] = target: PI3Kδ (His-PIK3CD/PIK3R1, p110 delta/p85 alpha) (Homo sapiens (Human), UniProt O00329); experiment: PI3Kδ biochemical assay (HTRF/FRET probe); format: binding; conditions: class symbol
# Procedure: Phosphoinositide 3-kinase (PI3K) Biochemical Assay: A solution was prepared containing 0.2 nM Anti-HIS-Terbium (Cisbio, 64CUSTAZU), 40 nM designed-probe and 1.0 nM His-PIK3CD/PIK3R1 (p110 delta/p85 alpha) in FRET Buffer (20 mM HEPES, 10 mM MgCl2, 0.015% Brij-35, 4 mM DTT, 0.05 mg/mL BSA).
# [4] = target: PI3Kα (His-PIK3CA/PIK3R1, p110 alpha/p85 alpha) (Homo sapiens (Human), UniProt P42336); experiment: PI3Kα biochemical assay (HTRF/FRET probe); format: binding; conditions: class symbol
# Procedure: Phosphoinositide 3-kinase α (PI3Kα) Biochemical Assay: A solution was prepared containing 0.2 nM Anti-HIS-Terbium (Cisbio, 64CUSTAZU), 3.7 nM designed-probe and 1.0 nM His-PIK3CA/PIK3R1 (p110 alpha/p85 alpha) in FRET Buffer (20 mM HEPES, 10 mM MgCl2, 0.015% Brij-35, 4 mM DTT, 0.05 mg/mL BSA).
# [5] = read-out: DNA-PK HotSpot 10 μM ATP IC50, class symbol
# [6] = read-out: ATM HTRF 10 μM ATP IC50, class symbol
# Sequence of ATM (Q13315 whole entry): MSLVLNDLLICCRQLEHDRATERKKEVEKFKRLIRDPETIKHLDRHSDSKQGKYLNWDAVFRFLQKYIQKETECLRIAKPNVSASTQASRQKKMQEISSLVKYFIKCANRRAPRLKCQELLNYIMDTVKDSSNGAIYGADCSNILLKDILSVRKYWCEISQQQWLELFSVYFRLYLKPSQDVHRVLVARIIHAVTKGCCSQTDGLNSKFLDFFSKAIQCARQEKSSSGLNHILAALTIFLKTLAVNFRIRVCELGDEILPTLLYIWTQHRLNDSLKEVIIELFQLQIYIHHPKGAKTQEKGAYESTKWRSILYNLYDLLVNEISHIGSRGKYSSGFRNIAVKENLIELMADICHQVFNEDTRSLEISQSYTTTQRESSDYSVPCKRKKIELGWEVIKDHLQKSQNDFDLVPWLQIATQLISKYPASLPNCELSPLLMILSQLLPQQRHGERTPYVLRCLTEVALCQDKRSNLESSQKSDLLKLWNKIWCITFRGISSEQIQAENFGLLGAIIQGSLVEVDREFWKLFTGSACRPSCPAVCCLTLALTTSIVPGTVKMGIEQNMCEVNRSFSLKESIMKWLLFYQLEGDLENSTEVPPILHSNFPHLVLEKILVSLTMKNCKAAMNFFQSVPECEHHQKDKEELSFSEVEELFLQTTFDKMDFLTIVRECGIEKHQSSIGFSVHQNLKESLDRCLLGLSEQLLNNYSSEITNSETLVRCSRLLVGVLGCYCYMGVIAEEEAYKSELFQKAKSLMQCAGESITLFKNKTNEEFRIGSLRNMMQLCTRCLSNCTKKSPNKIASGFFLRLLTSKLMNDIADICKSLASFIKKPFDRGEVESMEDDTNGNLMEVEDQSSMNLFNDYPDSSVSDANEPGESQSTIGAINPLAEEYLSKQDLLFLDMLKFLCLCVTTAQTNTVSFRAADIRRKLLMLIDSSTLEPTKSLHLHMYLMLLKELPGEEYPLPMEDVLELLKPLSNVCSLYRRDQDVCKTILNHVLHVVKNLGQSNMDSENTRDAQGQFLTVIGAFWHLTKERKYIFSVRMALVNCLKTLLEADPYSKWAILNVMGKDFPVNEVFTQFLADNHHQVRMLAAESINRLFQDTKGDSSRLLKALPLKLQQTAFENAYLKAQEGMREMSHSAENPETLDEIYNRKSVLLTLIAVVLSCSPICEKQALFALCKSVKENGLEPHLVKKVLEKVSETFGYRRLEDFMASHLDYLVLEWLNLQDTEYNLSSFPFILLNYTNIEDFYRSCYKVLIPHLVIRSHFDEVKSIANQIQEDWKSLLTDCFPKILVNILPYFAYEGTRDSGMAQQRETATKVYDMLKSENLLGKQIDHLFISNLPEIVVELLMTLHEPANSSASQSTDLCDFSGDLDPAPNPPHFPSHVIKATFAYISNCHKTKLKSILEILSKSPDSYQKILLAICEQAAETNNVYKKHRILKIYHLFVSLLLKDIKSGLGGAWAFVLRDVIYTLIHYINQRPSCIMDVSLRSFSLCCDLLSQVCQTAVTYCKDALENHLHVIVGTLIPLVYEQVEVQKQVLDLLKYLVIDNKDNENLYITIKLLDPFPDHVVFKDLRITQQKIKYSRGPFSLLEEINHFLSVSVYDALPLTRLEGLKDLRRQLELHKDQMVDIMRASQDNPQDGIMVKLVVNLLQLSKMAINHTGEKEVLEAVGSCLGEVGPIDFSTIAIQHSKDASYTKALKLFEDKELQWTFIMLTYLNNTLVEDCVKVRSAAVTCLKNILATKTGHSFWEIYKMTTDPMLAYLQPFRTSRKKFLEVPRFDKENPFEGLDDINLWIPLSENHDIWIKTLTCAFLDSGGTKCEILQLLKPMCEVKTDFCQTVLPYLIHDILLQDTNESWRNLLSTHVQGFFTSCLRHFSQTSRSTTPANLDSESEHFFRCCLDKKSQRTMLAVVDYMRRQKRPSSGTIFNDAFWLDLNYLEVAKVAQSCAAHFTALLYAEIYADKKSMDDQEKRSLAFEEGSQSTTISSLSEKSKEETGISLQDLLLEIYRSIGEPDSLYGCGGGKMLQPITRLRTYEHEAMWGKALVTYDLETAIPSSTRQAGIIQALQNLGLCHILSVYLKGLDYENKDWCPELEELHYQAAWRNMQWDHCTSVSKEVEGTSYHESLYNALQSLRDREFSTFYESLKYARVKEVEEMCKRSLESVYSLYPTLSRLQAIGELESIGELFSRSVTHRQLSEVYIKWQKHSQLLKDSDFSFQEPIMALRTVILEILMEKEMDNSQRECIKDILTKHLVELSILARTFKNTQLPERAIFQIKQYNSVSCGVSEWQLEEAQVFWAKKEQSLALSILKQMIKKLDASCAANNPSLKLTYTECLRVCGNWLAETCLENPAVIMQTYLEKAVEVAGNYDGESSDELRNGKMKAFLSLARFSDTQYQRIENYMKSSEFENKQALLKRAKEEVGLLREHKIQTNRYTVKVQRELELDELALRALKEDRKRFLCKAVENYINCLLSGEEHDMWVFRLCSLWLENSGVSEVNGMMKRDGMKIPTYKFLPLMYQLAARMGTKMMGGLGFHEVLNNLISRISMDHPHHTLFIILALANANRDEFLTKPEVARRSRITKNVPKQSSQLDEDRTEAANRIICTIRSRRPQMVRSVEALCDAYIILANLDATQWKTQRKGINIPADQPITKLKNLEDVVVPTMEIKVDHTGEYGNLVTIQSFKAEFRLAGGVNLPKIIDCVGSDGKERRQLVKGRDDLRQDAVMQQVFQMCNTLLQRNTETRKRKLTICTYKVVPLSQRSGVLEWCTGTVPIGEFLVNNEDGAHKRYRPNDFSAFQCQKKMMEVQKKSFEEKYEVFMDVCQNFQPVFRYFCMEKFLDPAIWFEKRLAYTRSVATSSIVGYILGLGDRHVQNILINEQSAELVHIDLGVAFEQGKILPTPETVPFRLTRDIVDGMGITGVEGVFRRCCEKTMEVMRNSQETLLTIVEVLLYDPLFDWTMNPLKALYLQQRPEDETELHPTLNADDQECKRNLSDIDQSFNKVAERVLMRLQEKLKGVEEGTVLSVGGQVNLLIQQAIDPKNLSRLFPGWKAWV
# Sequence of PI3Kα (His-PIK3CA/PIK3R1, p110 alpha/p85 alpha) (P42336 whole entry, species assumed): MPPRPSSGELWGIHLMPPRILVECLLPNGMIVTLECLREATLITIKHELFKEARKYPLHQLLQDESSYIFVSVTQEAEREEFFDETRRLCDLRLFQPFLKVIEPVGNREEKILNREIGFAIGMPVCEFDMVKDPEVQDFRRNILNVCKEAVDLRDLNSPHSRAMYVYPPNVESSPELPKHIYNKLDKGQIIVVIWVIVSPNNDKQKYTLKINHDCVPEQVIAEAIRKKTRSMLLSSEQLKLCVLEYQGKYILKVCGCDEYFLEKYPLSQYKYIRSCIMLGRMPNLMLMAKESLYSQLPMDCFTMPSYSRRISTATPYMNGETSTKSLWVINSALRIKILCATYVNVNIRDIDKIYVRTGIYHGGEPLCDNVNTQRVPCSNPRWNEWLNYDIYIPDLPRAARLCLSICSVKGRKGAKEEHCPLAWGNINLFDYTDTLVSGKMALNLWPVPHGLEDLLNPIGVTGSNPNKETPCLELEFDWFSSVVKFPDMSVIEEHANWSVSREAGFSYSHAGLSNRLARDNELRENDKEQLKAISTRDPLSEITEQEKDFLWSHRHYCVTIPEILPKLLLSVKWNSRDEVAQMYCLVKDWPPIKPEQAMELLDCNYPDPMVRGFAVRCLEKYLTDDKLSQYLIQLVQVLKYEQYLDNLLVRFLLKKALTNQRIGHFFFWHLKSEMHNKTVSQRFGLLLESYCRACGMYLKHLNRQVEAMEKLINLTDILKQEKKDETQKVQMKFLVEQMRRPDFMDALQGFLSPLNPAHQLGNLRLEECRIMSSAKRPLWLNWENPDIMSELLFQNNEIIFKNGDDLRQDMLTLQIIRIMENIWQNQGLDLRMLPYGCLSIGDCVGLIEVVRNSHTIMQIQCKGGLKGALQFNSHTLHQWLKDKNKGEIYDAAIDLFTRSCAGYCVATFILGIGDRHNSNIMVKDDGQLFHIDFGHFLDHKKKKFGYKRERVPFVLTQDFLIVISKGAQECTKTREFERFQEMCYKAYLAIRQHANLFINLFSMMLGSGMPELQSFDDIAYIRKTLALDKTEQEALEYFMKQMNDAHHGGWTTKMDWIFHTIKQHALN
# Sequence of PI3Kα (His-PIK3CA/PIK3R1, p110 alpha/p85 alpha) (P27986 whole entry partner, species assumed): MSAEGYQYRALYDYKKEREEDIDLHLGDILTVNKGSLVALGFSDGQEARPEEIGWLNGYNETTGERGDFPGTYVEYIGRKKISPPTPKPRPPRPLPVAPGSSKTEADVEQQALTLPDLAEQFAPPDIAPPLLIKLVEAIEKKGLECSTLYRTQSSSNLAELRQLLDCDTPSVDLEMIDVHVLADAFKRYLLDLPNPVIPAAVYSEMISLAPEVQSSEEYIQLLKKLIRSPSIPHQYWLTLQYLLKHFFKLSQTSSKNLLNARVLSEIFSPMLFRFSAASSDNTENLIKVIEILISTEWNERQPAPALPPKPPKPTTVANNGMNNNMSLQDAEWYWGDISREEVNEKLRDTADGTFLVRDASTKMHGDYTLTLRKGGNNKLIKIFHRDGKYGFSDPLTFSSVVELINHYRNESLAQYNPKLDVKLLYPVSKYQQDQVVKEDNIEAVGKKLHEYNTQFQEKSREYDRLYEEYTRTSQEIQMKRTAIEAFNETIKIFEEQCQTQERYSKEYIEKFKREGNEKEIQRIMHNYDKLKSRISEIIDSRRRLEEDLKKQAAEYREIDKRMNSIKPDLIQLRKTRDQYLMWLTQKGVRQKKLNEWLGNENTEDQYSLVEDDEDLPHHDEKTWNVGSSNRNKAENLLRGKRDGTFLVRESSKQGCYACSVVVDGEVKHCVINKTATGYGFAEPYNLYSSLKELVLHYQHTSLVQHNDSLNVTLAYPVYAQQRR
Structure (SMILES),IC50 ([1]; class symbol) [nM],IC50 ([2]; class symbol) [nM],IC50 [3] [nM],IC50 [4] [nM],"IC50 [1, 5] [nM]","IC50 [2, 6] [nM]"
"COCC12CC(n3c(=O)n(C)c4cnc(Nc5cc6c(cc5C)OCO6)nc43)(C1)C2 [Compound 21, 9-(3-(methoxymethyl)bicyclo[1.1.1]pentan-1-yl)-7-methyl-2-((6-methylbenzo[d][1,3]dioxol-5-yl)amino)-7,9-dihydro-8H-purin-8-one]",1 to 10,10 to 100,≥ 1000,≥ 1000,–,–
"Cc1cc2ncnn2cc1Nc1ncc2c(n1)n(C13CC(CC#N)(C1)C3)c(=O)n2C [Compound 22, 2-(3-(7-methyl-2-((7-methyl-[1,2,4]triazolo[1,5-a]pyridin-6-yl)amino)-8-oxo-7,8-dihydro-9H-purin-9-yl)bicyclo[1.1.1]pentan-1-yl)acetonitrile]",1 to 10,1 to 10,≥ 1000,100 to 1000,–,–
"Cc1cc2c(cc1Nc1ncc3c(n1)n(C14CC(CC#N)(C1)C4)c(=O)n3C)OCO2 [Compound 23, 2-(3-(7-methyl-2-((6-methylbenzo[d][1,3]dioxol-5-yl)amino)-8-oxo-7,8-dihydro-9H-purin-9-yl)bicyclo[1.1.1]pentan-1-yl)acetonitrile]",1 to 10,10 to 100,≥ 1000,100 to 1000,–,–
"Cc1cc2c(cc1Nc1ncc3c(n1)n(C14CCC(C#N)(CC1)CC4)c(=O)n3C)OCO2 [Compound 24, 4-(7-methyl-2-((6-methylbenzo[d][1,3]dioxol-5-yl)amino)-8-oxo-7,8-dihydro-9H-purin-9-yl) bicyclo[2.2.2]octane-1-carbonitrile]",–,10 to 100,≥ 1000,100 to 1000,< 1,–
"COC12CCC(n3c(=O)n(C)c4cnc(Nc5cn6ncnc6cc5C)nc43)(CC1)CC2 [Compound 25, 9-(4-methoxybicyclo[2.2.2]octan-1-yl)-7-methyl-2-((7-methyl-[1,2,4]triazolo[1,5-a]pyridin-6-yl)amino)-7,9-dihydro-8H-purin-8-one]",–,1 to 10,100 to 1000,100 to 1000,< 1,–
"COC12CCC(n3c(=O)n(C)c4cnc(Nc5cc6c(cc5C)OCO6)nc43)(CC1)CC2 [Compound 26, 9-(4-methoxybicyclo[2.2.2]octan-1-yl)-7-methyl-2-((6-methylbenzo[d][1,3]dioxol-5-yl)amino)-7,9-dihydro-8H-purin-8-one]",–,10 to 100,≥ 1000,100 to 1000,< 1,–
"Cc1cc2c(cc1Nc1ncc3c(n1)n(C14CCC(O)(CC1)CC4)c(=O)n3C)OCO2 [Compound 27, 9-(4-hydroxybicyclo[2.2.2]octan-1-yl)-7-methyl-2-((6-methylbenzo[d][1,3]dioxol-5-yl)amino)-7,9-dihydro-8H-purin-8-one]",–,10 to 100,≥ 1000,10 to 100,< 1,–
"COC12CCC(n3c(=O)n(C)c4cnc(Nc5cn6ncnc6cc5C)nc43)(C1)C2 [Compound 29, 9-(4-methoxybicyclo[2.1.1]hexan-1-yl)-7-methyl-2-((7-methyl-[1,2,4]triazolo[1,5-a]pyridin-6-yl)amino)-7,9-dihydro-8H-purin-8-one]",1 to 10,100 to 1000,≥ 1000,≥ 1000,–,–
"COC12CCC(n3c(=O)n(C)c4cnc(Nc5cc6nsnc6cc5C)nc43)(C1)C2 [Compound 30, 9-(4-methoxybicyclo[2.1.1]hexan-1-yl)-7-methyl-2-((6-methylbenzo[c][1,2,5]thiadiazol-5-yl)amino)-7,9-dihydro-8H-purin-8-one]",–,100 to 1000,≥ 1000,100 to 1000,< 1,–
"Cc1cc2ncnn2cc1Nc1ncc2c(n1)n(C13CCC(O)(CC1)C3)c(=S)n2C [Compound 31, 9-(4-hydroxybicyclo[2.2.1]heptan-1-yl)-7-methyl-2-((7-methyl-[1,2,4]triazolo[1,5-a]pyridin-6-yl)amino)-7,9-dihydro-8H-purine-8-thione]",1 to 10,100 to 1000,10 to 100,100 to 1000,–,–
"Cc1cc2nccnc2cc1Nc1ncc2c(n1)n(C13CCC(O)(CC1)C3)c(=S)n2C [Compound 33, 9-(4-hydroxybicyclo[2.2.1]heptan-1-yl)-7-methyl-2-((7-methylquinoxalin-6-yl)amino)-7,9-dihydro-8H-purine-8-thione]",1 to 10,100 to 1000,10 to 100,100 to 1000,–,–
"Cc1cc2ncnn2cc1Nc1ncc2c(n1)n(C13CC(F)(C1)C3)c(=S)n2C [Compound 34, 9-(3-fluorobicyclo[1.1.1]pentan-1-yl)-7-methyl-2-((7-methyl-[1,2,4]triazolo[1,5-a]pyridin-6-yl)amino)-7,9-dihydro-8H-purine-8-thione]",10 to 100,–,100 to 1000,≥ 1000,–,≥ 1000
"Cc1cc2c(cc1Nc1ncc3c(n1)n(C14CC(F)(C1)C4)c(=S)n3C)OCO2 [Compound 35, 9-(3-fluorobicyclo[1.1.1]pentan-1-yl)-7-methyl-2-((6-methylbenzo[d][1,3]dioxol-5-yl)amino)-7,9-dihydro-8H-purine-8-thione]",100 to 1000,–,≥ 1000,≥ 1000,–,≥ 1000
"Cc1cc(-c2cnco2)c(F)cc1Nc1ncc2c(n1)n(C13CCC(O)(CC1)C3)c(=O)n2C [Compound 36, 2-((5-fluoro-2-methyl-4-(oxazol-5-yl)phenyl)amino)-9-(4-hydroxybicyclo[2.2.1]heptan-1-yl)-7-methyl-7,9-dihydro-8H-purin-8-one]",–,–,≥ 1000,100 to 1000,< 1,< 1
"Cc1cc(-c2cnn(C)c2)c(F)cc1Nc1ncc2c(n1)n(C13CCC(O)(CC1)C3)c(=O)n2C [Compound 37, 2-((5-fluoro-2-methyl-4-(1-methyl-1H-pyrazol-4-yl)phenyl)amino)-9-(4-hydroxybicyclo[2.2.1]heptan-1-yl)-7-methyl-7,9-dihydro-8H-purin-8-one]",–,1 to 10,≥ 1000,100 to 1000,< 1,–
"COC12CCC(n3c(=O)n(C)c4cnc(Nc5cc(F)c(-c6cnn(C)c6)cc5C)nc43)(C1)C2 [Compound 39, 2-((5-fluoro-2-methyl-4-(1-methyl-1H-pyrazol-4-yl)phenyl)amino)-9-(4-methoxybicyclo[2.1.1]hexan-1-yl)-7-methyl-7,9-dihydro-8H-purin-8-one]",10 to 100,10 to 100,≥ 1000,100 to 1000,–,–
"COC12CCC(n3c(=O)n(C)c4cnc(Nc5cc(F)c(C(N)=O)cc5C)nc43)(C1)C2 [Compound 40, 2-fluoro-4-((9-(4-methoxybicyclo[2.1.1]hexan-1-yl)-7-methyl-8-oxo-8,9-dihydro-7H-purin-2-yl)amino)-5-methylbenzamide]",1 to 10,100 to 1000,≥ 1000,100 to 1000,–,–
"COC12CCC(n3c(=O)n(C)c4cnc(Nc5cc(F)c(-c6cnco6)cc5C)nc43)(C1)C2 [Compound 41, 2-((5-fluoro-2-methyl-4-(oxazol-5-yl)phenyl)amino)-9-(4-methoxybicyclo[2.1.1]hexan-1-yl)-7-methyl-7,9-dihydro-8H-purin-8-one]",1 to 10,1 to 10,≥ 1000,100 to 1000,–,–
"Cc1cc2ncnn2cc1Nc1ncc2c(C)nn(C34CC(C3)C4)c2n1 [Compound 47, 1-(bicyclo[1.1.1]pentan-1-yl)-3-methyl-N-(7-methyl-[1,2,4]triazolo[1,5-a]pyridin-6-yl)-1H-pyrazolo[3,4-d]pyrimidin-6-amine]",1 to 10,100 to 1000,≥ 1000,≥ 1000,–,–

# From US20250263753A1, “BRIDGED CYCLE-BASED INHIBITORS OF DNA-DEPENDENT PROTEIN KINASE AND COMPOSITIONS AND APPLICATION IN GENE EDITING” (Juno Therapeutics, Inc., priority 2023, published 2025)
